Experimental data published in patent publication US20200079758A1, “[4-(PHENYLSULFONYL)PIPERAZIN-1-YL](1H-1,2,3-TRIAZOL-4-YL)METHANONES” (priority 2016, published 2020).

biological target: T1, recombinant human AKR1C3 (Homo sapiens, UniProt P42330); test: AKR1C3-inhibitory activity assay (generation of Coumberol from Coumberone); type: biochemical; conditions: Coumberone 0.3 μM, NADPH 10 μM, 22° C., typically 90 min, average or median values
T1 construct: GST (cleaved yes); made in house; host or cells: E. coli
T1 sequence (P42330 1-323): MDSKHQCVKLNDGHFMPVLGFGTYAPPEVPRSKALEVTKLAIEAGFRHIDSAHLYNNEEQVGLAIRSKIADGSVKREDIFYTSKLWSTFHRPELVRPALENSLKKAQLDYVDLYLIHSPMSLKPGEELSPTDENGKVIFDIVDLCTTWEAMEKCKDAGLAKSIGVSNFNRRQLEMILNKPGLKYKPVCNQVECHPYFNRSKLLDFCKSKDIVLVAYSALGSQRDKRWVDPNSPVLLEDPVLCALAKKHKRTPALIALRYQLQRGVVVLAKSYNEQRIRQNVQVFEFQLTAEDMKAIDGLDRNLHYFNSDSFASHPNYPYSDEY
Procedure: The AKR1C3-inhibitory activity of the substances of the present invention was measured in the AKR1C3 assay described in the paragraphs below.
Essentially, the enzyme activity is measured by quantification of the generation of Coumberol from Coumberone (Halim et al. J. AM. CHEM. SOC. 2008, 130:14123-14128 and Yee et al. Proc. Natl. Acad. Sci. USA 2006, 103:13304-13309). In this test, the increase of the highly fluorescent Coumberol by NADPH- (nicotinamide adenine dinucleotide phosphate)-dependent reduction of the non-fluorescent Coumberone by AKR1C3 was determined.
The enzyme used was recombinant human AKR1C3 (Aldo-keto reductase family 1 member C3; GenBank Accession No. NM_003739). This was expressed in E. coli as GST (glutathione S transferase) fusion protein and purified by glutathione Sepharose affinity chromatography. The GST was removed by digestion with thrombin and subsequent size exclusion chromatography (Dufort, I., Rheault, P., Huang, X F., Soucy, P., and Luu-The, V., Endocrinology 140, 568-574 (1999)).
For the assay, 50 nl of a 100-fold concentrated solution of the test substance in DMSO were pipetted into a black low-volume 384-well microtiter plate (Greiner Bio-One, Frickenhausen, Germany), 2.5 μl of a solution of AKR1C3 in assay buffer [50 mM potassium phosphate buffer pH 7, 1 mM DTT, 0.0022% (w/v) Pluronic F-127, 0.01% BSA (w/v) and protease inhibitor cocktail (Complete, EDTA-free Protease Inhibitor Cocktail from Roche)] were added and the mixture was incubated for 15 min to allow pre-binding of the substances to the enzyme prior to the enzyme reaction. The enzyme reaction was then started by addition of 2.5 μl of a solution of NADPH (20 μM→final concentration in 5 μl of assay volume is 10 μM) and Coumberone (0.6 μM→final concentration in 5 μl of assay volume is 0.3 μM) in assay buffer, and the resulting mixture was incubated at 22° C. for the reaction time of typically 90 min. The concentration of the AKR1C3 and the reaction time was adapted to the respective activity of the enzyme preparation and adjusted such that the assay was carried out in the linear range. Typical AKR1C3 concentrations were in the region of 1 nM. The reaction was stopped by addition of 2.5 μl of a stop solution consisting of 3 μM EM-1404 as inhibitor (U.S. Pat. No. 6,541,463) in 50 mM HEPES pH7.5 (3 μM EM-1404→final concentration in 7.5 μl of assay volume is 1 μM). The fluorescence of the Coumberole was then measured at 520 nm (excitation at 380 nm) using a suitable measuring instrument (Pherastar from BMG Labtechnologies). The intensity of the fluorescence was used as a measure of the amount of Coumberole formed and thus of the enzyme activity of AKR1C3. The data were normalized (enzyme reaction without inhibitor=0% inhibition; all other assay components, but no enzyme=100% inhibition).

Row | Structure (SMILES) | IC50 [nM]
1 | C[C@@H]1CN(S(=O)(=O)c2cc(F)cc(F)c2)C[C@H](C)N1C(=O)c1c[nH]nn1 [Example 56, {(2R,6S)-4-[(3,5-difluorophenyl)sulfonyl]-2,6-dimethylpiperazin-1-yl}(1H-1,2,3-triazol-4-yl)methanone] | 13
2 | C[C@@H]1CN(S(=O)(=O)c2cccc(C(F)(F)F)c2)C[C@H](C)N1C(=O)c1c[nH]nn1 [Example 57, [(2R,6S)-2,6-dimethyl-4-{[3-(trifluoromethyl)phenyl]sulfonyl}piperazin-1-yl](1H-1,2,3-triazol-4-yl)methanone] | 10
3 | C[C@@H]1CN(S(=O)(=O)c2cc(Cl)cc(Cl)c2)C[C@H](C)N1C(=O)c1c[nH]nn1 [Example 58, {(2R,6S)-4-[(3,5-dichlorophenyl)sulfonyl]-2,6-dimethylpiperazin-1-yl}(1H-1,2,3-triazol-4-yl)methanone] | 2
4 | C[C@@H]1CN(S(=O)(=O)c2cc(F)ccc2F)C[C@H](C)N1C(=O)c1c[nH]nn1 [Example 59, {(2R,6S)-4-[(2,5-difluorophenyl)sulfonyl]-2,6-dimethylpiperazin-1-yl}(1H-1,2,3-triazol-4-yl)methanone] | 4
5 | C[C@@H]1CN(S(=O)(=O)c2ccc(F)c(F)c2)C[C@H](C)N1C(=O)c1c[nH]nn1 [Example 60, {(2R,6S)-4-[(3,4-difluorophenyl)sulfonyl]-2,6-dimethylpiperazin-1-yl}(1H-1,2,3-triazol-4-yl)methanone] | 47
6 | C[C@@H]1CN(C(=O)c2cnn[nH]2)[C@@H](C)CN1S(=O)(=O)c1ccc(Br)cc1 [Example 61, {(2S,5R)-4-[(4-bromophenyl)sulfonyl]-2,5-dimethylpiperazin-1-yl}(1H-1,2,3-triazol-5-yl)methanone] | 4
7 | CC(=O)Nc1ccc(S(=O)(=O)N2C[C@H](C)N(C(=O)c3cnn[nH]3)C[C@H]2C)cc1 [Example 62, N-(4-{[(2R,5S)-2,5-dimethyl-4-(1H-1,2,3-triazol-5-ylcarbonyl)piperazin-1-yl]sulfonyl}phenyl)acetamide] | 88
8 | C[C@@H]1CN(C(=O)c2cnn[nH]2)[C@@H](C)CN1S(=O)(=O)c1ccc(Cl)cc1 [Example 63, {(2S,5R)-4-[(4-chlorophenyl)sulfonyl]-2,5-dimethylpiperazin-1-yl}(1H-1,2,3-triazol-5-yl)methanone] | 3
9 | C[C@@H]1CN(C(=O)c2cnn[nH]2)[C@@H](C)CN1S(=O)(=O)Cc1ccccc1 [Example 64, [(2S,5R)-4-(benzylsulfonyl)-2,5-dimethylpiperazin-1-yl](1H-1,2,3-triazol-5-yl)methanone] | 114
10 | C[C@@H]1CN(C(=O)c2cnn[nH]2)[C@@H](C)CN1S(=O)(=O)c1cccc2ccccc12 [Example 65, [(2S,5R)-2,5-dimethyl-4-(naphthalen-1-ylsulfonyl)piperazin-1-yl](1H-1,2,3-triazol-5-yl)methanone] | 2
11 | C[C@@H]1CN(C(=O)c2cnn[nH]2)[C@@H](C)CN1S(=O)(=O)c1ccc(F)cc1 [Example 66, {(2S,5R)-4-[(4-fluorophenyl)sulfonyl]-2,5-dimethylpiperazin-1-yl}(1H-1,2,3-triazol-5-yl)methanone] | 4
12 | COc1ccc(S(=O)(=O)N2C[C@H](C)N(C(=O)c3cnn[nH]3)C[C@H]2C)cc1 [Example 67, {(2S,5R)-4-[(4-methoxyphenyl)sulfonyl]-2,5-dimethylpiperazin-1-yl}(1H-1,2,3-triazol-5-yl)methanone] | 7
13 | C[C@@H]1CN(C(=O)c2cnn[nH]2)[C@@H](C)CN1S(=O)(=O)c1cccc2cccnc12 [Example 68, [(2S,5R)-2,5-dimethyl-4-(quinolin-8-ylsulfonyl)piperazin-1-yl](1H-1,2,3-triazol-5-yl)methanone] | 7
14 | Cc1ccccc1S(=O)(=O)N1C[C@H](C)N(C(=O)c2cnn[nH]2)C[C@H]1C [Example 69, {(2S,5R)-2,5-dimethyl-4-[(2-methylphenyl)sulfonyl]piperazin-1-yl}(1H-1,2,3-triazol-5-yl)methanone] | 1
15 | Cc1ccc(C)c(S(=O)(=O)N2C[C@H](C)N(C(=O)c3cnn[nH]3)C[C@H]2C)c1 [Example 70, {(2S,5R)-4-[(2,5-dimethylphenyl)sulfonyl]-2,5-dimethylpiperazin-1-yl}(1H-1,2,3-triazol-5-yl)methanone] | 1
16 | C[C@@H]1CN(C(=O)c2cnn[nH]2)[C@@H](C)CN1S(=O)(=O)c1ccc(OC(F)(F)F)cc1 [Example 71, [(2S,5R)-2,5-dimethyl-4-{[4-(trifluoromethoxy)phenyl]sulfonyl}piperazin-1-yl](1H-1,2,3-triazol-5-yl)methanone] | 22
17 | C[C@@H]1CN(C(=O)c2cnn[nH]2)[C@@H](C)CN1S(=O)(=O)c1ccccc1OC(F)(F)F [Example 72, [(2S,5R)-2,5-dimethyl-4-{[2-(trifluoromethoxy)phenyl]sulfonyl}piperazin-1-yl](1H-1,2,3-triazol-5-yl)methanone] | 2
18 | C[C@@H]1CN(C(=O)c2cnn[nH]2)[C@@H](C)CN1S(=O)(=O)c1ccccc1Cl [Example 73, {(2S,5R)-4-[(2-chlorophenyl)sulfonyl]-2,5-dimethylpiperazin-1-yl}(1H-1,2,3-triazol-5-yl)methanone] | 1
19 | C[C@@H]1CN(C(=O)c2cnn[nH]2)[C@@H](C)CN1S(=O)(=O)c1cccc(Cl)c1 [Example 74, {(2S,5R)-4-[(3-chlorophenyl)sulfonyl]-2,5-dimethylpiperazin-1-yl}(1H-1,2,3-triazol-5-yl)methanone] | 1
20 | Cc1cccc(S(=O)(=O)N2C[C@H](C)N(C(=O)c3cnn[nH]3)C[C@H]2C)c1 [Example 75, {(2S,5R)-2,5-dimethyl-4-[(3-methylphenyl)sulfonyl]piperazin-1-yl}(1H-1,2,3-triazol-5-yl)methanone] | 1
21 | C[C@@H]1CN(C(=O)c2cnn[nH]2)[C@@H](C)CN1S(=O)(=O)c1ccccc1Br [Example 76, {(2S,5R)-4-[(2-bromophenyl)sulfonyl]-2,5-dimethylpiperazin-1-yl}(1H-1,2,3-triazol-5-yl)methanone] | 1
22 | Cc1c(Cl)cccc1S(=O)(=O)N1C[C@H](C)N(C(=O)c2cnn[nH]2)C[C@H]1C [Example 77, {(2S,5R)-4-[(3-chloro-2-methylphenyl)sulfonyl]-2,5-dimethylpiperazin-1-yl}(1H-1,2,3-triazol-5-yl)methanone] | 2
23 | C[C@@H]1CN(C(=O)c2cnn[nH]2)[C@@H](C)CN1S(=O)(=O)c1cccc(Br)c1 [Example 78, {(2S,5R)-4-[(3-bromophenyl)sulfonyl]-2,5-dimethylpiperazin-1-yl}(1H-1,2,3-triazol-5-yl)methanone] | 1
24 | C[C@@H]1CN(C(=O)c2cnn[nH]2)[C@@H](C)CN1S(=O)(=O)c1c(F)cccc1F [Example 79, {(2S,5R)-4-[(2,6-difluorophenyl)sulfonyl]-2,5-dimethylpiperazin-1-yl}(1H-1,2,3-triazol-5-yl)methanone] | 2
25 | CC(=O)Nc1cccc(S(=O)(=O)N2C[C@H](C)N(C(=O)c3cnn[nH]3)C[C@H]2C)c1 [Example 80, N-(3-{[(2R,5S)-2,5-dimethyl-4-(1H-1,2,3-triazol-5-ylcarbonyl)piperazin-1-yl]sulfonyl}phenyl)acetamide] | 104
